Experiments:
[1] = molecular target: human TLR7 (Homo sapiens (Human), UniProt Q9NYK1); experiment: TLR7 inhibition reporter assay (HEK-Blue SEAP); format: cell-based; conditions: HEK-Blue cells overexpressing human TLR7, gardiquimod 7.5 μM stimulation
[2] = molecular target: human TLR8 (Homo sapiens (Human), UniProt Q9NR97); experiment: TLR8 inhibition reporter assay (HEK-Blue SEAP); conditions: read-out: TLR8 IC50; HEK-Blue cells overexpressing human TLR8, R848 15.9 μM stimulation, SEAP reporter;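 note: SEAP driven by IFN-β minimal promoter with five NF-κB and AP-1 sites, compounds tested 0.05 nM to 50 µM, 22 h incubation, inhibition relative to agonist plus DMSO wells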
Sequence of human TLR8 (Q9NR97 27-1041): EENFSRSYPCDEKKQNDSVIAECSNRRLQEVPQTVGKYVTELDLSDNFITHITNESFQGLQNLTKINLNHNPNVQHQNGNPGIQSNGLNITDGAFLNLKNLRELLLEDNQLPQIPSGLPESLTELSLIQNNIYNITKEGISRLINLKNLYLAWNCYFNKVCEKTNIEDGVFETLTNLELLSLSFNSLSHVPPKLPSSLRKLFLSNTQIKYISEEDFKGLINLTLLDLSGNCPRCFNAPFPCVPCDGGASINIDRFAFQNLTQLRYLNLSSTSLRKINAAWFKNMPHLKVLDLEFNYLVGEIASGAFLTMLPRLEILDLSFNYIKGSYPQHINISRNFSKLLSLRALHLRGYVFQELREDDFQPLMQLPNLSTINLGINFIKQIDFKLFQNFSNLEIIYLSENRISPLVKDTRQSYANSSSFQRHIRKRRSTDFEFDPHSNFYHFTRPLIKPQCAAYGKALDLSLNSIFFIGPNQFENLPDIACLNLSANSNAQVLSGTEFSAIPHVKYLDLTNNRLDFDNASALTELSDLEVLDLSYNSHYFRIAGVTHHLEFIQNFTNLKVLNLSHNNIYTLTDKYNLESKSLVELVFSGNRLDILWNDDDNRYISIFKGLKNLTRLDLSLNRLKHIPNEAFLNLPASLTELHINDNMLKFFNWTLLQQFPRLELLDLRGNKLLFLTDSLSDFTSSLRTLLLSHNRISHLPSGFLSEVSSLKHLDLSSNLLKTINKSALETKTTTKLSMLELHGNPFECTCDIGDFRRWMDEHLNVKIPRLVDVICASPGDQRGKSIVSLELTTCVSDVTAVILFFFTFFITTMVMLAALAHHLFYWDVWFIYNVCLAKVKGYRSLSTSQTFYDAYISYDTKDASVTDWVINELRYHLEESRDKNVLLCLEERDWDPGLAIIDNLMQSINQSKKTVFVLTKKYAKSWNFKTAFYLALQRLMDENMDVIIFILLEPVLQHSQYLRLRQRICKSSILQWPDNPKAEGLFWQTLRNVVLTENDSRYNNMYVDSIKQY

[3] = molecular target: human TLR9 (Homo sapiens (Human), UniProt Q9NR96); experiment: TLR9 inhibition reporter assay (HEK-Blue SEAP); conditions: read-out: TLR9 IC50; HEK-Blue cells overexpressing human TLR9, ODN2006 5 nM stimulation, SEAP reporter;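 note: SEAP driven by IFN-β minimal promoter carrying five NF-κB and AP-1 sites, 22 h at 37 °C, compounds 0.05 nM–50 µM, inhibition scaled between agonist-plus-DMSO and reference-inhibitor wells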
Sequence of human TLR9 (Q9NR96 26-1032): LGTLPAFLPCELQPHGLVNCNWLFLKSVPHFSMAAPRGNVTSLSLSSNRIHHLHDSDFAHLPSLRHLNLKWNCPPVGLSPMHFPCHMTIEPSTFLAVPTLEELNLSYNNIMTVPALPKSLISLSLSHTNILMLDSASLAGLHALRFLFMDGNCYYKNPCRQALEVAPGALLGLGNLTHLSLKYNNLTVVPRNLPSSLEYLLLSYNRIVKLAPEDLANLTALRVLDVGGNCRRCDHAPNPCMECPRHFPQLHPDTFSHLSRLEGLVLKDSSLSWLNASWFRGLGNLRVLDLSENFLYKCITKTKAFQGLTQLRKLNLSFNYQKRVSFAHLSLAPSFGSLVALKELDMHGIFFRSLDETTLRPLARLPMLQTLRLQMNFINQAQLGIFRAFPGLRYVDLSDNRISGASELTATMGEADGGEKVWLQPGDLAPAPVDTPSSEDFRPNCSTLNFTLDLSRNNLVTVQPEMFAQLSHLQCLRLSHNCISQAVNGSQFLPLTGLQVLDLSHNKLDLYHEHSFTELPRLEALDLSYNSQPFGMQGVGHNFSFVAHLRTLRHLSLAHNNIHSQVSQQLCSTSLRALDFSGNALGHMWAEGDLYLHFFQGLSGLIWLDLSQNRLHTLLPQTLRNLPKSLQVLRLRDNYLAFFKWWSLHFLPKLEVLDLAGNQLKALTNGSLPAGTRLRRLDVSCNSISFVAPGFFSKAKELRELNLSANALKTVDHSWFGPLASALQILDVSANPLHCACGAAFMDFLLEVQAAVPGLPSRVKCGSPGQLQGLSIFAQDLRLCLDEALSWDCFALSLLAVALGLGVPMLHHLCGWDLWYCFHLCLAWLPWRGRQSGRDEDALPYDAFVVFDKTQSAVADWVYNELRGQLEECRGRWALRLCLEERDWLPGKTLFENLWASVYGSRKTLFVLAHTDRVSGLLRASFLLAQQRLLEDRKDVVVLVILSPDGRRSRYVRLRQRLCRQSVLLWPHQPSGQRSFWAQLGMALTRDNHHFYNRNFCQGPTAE

Sequence of human TLR7 (Q9NYK1 27-1049): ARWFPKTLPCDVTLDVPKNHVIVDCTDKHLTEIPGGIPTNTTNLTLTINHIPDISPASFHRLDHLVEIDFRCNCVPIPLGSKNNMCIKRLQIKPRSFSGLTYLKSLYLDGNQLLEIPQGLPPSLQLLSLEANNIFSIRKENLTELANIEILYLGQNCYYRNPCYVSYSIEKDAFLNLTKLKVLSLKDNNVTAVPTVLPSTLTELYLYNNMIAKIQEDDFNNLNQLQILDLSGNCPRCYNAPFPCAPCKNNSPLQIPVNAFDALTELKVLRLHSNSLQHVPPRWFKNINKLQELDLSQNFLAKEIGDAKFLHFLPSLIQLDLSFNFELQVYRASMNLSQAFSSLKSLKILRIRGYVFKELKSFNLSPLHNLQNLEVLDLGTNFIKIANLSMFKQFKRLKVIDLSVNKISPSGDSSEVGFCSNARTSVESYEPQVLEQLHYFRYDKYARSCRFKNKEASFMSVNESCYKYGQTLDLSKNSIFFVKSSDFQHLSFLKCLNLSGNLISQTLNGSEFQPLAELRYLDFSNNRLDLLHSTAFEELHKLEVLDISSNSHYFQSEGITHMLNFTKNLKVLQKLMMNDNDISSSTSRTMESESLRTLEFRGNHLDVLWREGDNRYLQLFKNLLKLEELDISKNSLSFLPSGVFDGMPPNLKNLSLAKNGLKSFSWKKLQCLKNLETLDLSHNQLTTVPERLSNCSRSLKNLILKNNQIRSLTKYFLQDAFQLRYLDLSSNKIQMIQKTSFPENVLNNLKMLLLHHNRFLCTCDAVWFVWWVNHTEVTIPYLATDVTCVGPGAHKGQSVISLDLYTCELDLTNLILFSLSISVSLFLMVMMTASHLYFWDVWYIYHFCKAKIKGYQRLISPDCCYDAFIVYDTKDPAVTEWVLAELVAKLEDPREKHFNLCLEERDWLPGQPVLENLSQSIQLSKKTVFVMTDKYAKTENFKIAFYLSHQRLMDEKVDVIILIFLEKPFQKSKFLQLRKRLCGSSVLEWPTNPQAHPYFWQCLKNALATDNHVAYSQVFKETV

| IC50 [1] [nM] | IC50 [2] [nM] | IC50 [3] [nM] | SMILES |
| --- | --- | --- | --- |
| 0.8 | 0.25 | 2340 | COc1cc(-c2[nH]c3cnc(N4CCC(NC5CCOCC5)CC4)c(F)c3c2C(C)C)cn2ncnc12 [Example 100] |
| 1.2 | 0.66 | 4140 | COc1cc(-c2[nH]c3cnc(N4CCC(N(C)C(C)C)CC4)c(F)c3c2C(C)C)cn2ncnc12 [Example 101] |
| 0.34 | 0.24 | 2820 | CCN(C)C1CCN(c2ncc3[nH]c(-c4cc(OC)c5ncnn5c4)c(C(C)C)c3c2F)CC1 [Example 102] |
| 0.86 | 0.48 | 5920 | COc1cc(-c2[nH]c3cnc(N4CCC(NC5CCOC5)CC4)c(F)c3c2C(C)C)cn2ncnc12 (stereo not drawn) [Example 103] |
| 3.6 | 1.7 | 5300 | COc1cc(-c2[nH]c3cnc(N4CCC(N(C)C5COC5)CC4)c(F)c3c2C(C)C)cn2ncnc12 [Example 104] |
| 4.9 | 5 | 1950 | COc1cc(-c2[nH]c3cnc(C4CCC(N(C)C5COC5)CC4)c(F)c3c2C(C)C)cn2ncnc12 (stereo not drawn) [Example 106] |
| 3.6 | 4.5 | 2060 | Cc1cc(-c2[nH]c3cnc(C4CCC(NC5COC5)CC4)c(F)c3c2C(C)C)cn2ncnc12 (stereo not drawn) [Example 107] |
| 2.1 | 4 | 2760 | Cc1cc(-c2[nH]c3cnc(C4CCC(N(C)C(C)C)CC4)c(F)c3c2C(C)C)cn2ncnc12 (stereo not drawn) [Example 108] |
| 0.61 | 1.7 | 1660 | Cc1cc(-c2[nH]c3cnc(C4CCC(N5CCC5)CC4)c(F)c3c2C(C)C)cn2ncnc12 (stereo not drawn) [Example 109] |
| 2 | 1.3 | 1160 | Cc1cc(-c2[nH]c3cnc(C4CCC(NC5CCOCC5)CC4)c(F)c3c2C(C)C)cn2ncnc12 (stereo not drawn) [Example 110] |
| 1 | 0.48 | 3000 | Cc1c(-c2[nH]c3cnc(N4CCC(N5CC6(COC6)C5)CC4)c(F)c3c2C(C)C)cn2ncnc2c1C [Example 111] |
| 1.6 | 2.3 | 1880 | Cc1c(N2CCC(NCC(C)(C)C)CC2)ncc2[nH]c(-c3cc(C)c4ncnn4c3)c(C(C)C)c12 [Example 112] |
| 0.72 | 0.57 | 510 | Cc1c(-c2[nH]c3cnc(N4CCC(NC(C)C)CC4)c(C)c3c2C(C)C)cn2ncnc2c1C [Example 113] |
| 4.8 | 6.6 | 17400 | COc1cc(-c2[nH]c3cnc(C4CCC(N(CC#N)C5COC5)CC4)c(F)c3c2C(C)C)cn2ncnc12 (stereo not drawn) [Example 114] |
| 1.4 | 2.4 | 15800 | COc1cc(-c2[nH]c3cnc(C4CCC(N(CC#N)C5COC5)CC4)c(F)c3c2C(C)C)cn2ncnc12 (stereo not drawn) [Example 115] |
| 10 | 42 | 766 | CCN(C)C1CCC(c2ncc3[nH]c(-c4cc(OC)c5ncnn5c4)c(C(C)C)c3c2C)CC1 (stereo not drawn) [Example 116] |
| 28 | 41 | 868 | COc1cc(-c2[nH]c3cnc(C4CCC(NC[C@@H](F)C(C)(C)O)CC4)c(C)c3c2C(C)C)cn2ncnc12 (stereo partly drawn) [Example 117] |
| 8.6 | 1.4 | 294 | COc1cc(-c2[nH]c3cnc(C4CCC(N5CC6(COC6)C5)C4)cc3c2C(C)C)cn2ncnc12 (stereo not drawn) [Example 118] |
| 8.1 | 11 | 558 | Cc1c(-c2[nH]c3cnc(C4CCC(NC5CCOCC5)CC4)c(C)c3c2C(C)C)cn2ncnc2c1C (stereo not drawn) [Example 119] |
| 2.3 | 2 | 71 | Cc1c(-c2[nH]c3cnc(C4CCC(NC5CCOCC5)CC4)c(C)c3c2C(C)C)cn2ncnc2c1C (stereo not drawn) [Example 120] |

| IC50 [1] [nM] | IC50 [2] [nM] | IC50 [3] [nM] | SMILES |
| --- | --- | --- | --- |
| 2.7 | 5.9 | 759 | Cc1c(-c2[nH]c3cnc(C4CCC(NC5COC5)CC4)c(C)c3c2C(C)C)cn2ncnc2c1C (stereo not drawn) [Example 121] |
| 14 | 10 | 400 | Cc1c(-c2[nH]c3cnc(C4CCC(NCC(C)(C)O)CC4)c(C)c3c2C(C)C)cn2ncnc2c1C (stereo not drawn) [Example 122] |
| 26 | 31 | 1110 | COc1cc(-c2[nH]c3cnc(C4CCC(NCC(C)(C)OC)C4)cc3c2C(C)C)cn2ncnc12 (stereo not drawn) [Example 123] |
| 0.38 | 0.65 | 905 | Cc1c(N2CCC(N(C)C(C)C)CC2)ncc2[nH]c(-c3cc(C)c4ncnn4c3)c(C(C)C)c12 [Example 124] |
| 3.1 | 6.5 | 7030 | Cc1cc(-c2[nH]c3cnc(C4CCN(CC(N)=O)CC4)c(F)c3c2C(C)C)cn2ncnc12 [Example 125] |
| 8.2 | 3.2 | 2530 | COCCN1CCN(c2ncc3[nH]c(-c4cc(OC)c5ncnn5c4)c(C(C)C)c3c2C)CC1 [Example 126] |
| 47 | 150 | > 50000 | COc1cc(-c2[nH]c3cnc(C4CCN(CC(F)(F)F)CC4)c(F)c3c2C(C)C)cn2ncnc12 [Example 127] |
| 1.9 | 1.4 | 2480 | Cc1cc(-c2[nH]c3cnc(C4CCN(CC(C)(C)O)CC4)c(F)c3c2C(C)C)cn2ncnc12 [Example 128] |
| 0.75 | 0.15 | 5900 | Cc1cc(-c2[nH]c3cnc(N4CCC(NCC5(C)COC5)CC4)c(F)c3c2C(C)C)cn2ncnc12 [Example 129] |
| 1.3 | 0.76 | 5250 | Cc1cc(-c2[nH]c3cnc(N4CCC(N(C)C5COC5)CC4)c(F)c3c2C(C)C)cn2ncnc12 [Example 130] |
| 5 | 7.9 | 11400 | CNC(=O)CN(C)C1CCC(c2ncc3[nH]c(-c4cc(OC)c5ncnn5c4)c(C(C)C)c3c2F)CC1 (stereo not drawn) [Example 131] |
| 3.4 | 5 | 2130 | Cc1cc(-c2[nH]c3cnc(C4CCC(N5CC6(COC6)C5)CC4)c(F)c3c2C(C)C)cn2ncnc12 (stereo not drawn) [Example 132] |
| 0.52 | 1.2 | 1360 | Cc1cc(-c2[nH]c3cnc(C4CCC(N5CC6(COC6)C5)CC4)c(F)c3c2C(C)C)cn2ncnc12 (stereo not drawn) [Example 133] |
| 0.98 | 0.27 | 1020 | Cc1c(-c2[nH]c3cnc(C4CCC(NC5CCOCC5)CC4)c(F)c3c2C(C)C)cn2ncnc2c1C (stereo not drawn) [Example 134] |
| 0.24 | 0.48 | 6500 | CCN(C)C1CCC(c2ncc3[nH]c(-c4cn5ncnc5c(C)c4C)c(C(C)C)c3c2F)CC1 (stereo not drawn) [Example 135] |
| 0.41 | 0.32 | 620 | Cc1c(-c2[nH]c3cnc(C4CCC(NC(C)C)CC4)c(F)c3c2C(C)C)cn2ncnc2c1C (stereo not drawn) [Example 136] |
| 0.63 | 0.9 | 3160 | COc1cc(-c2[nH]c3cnc(N4CCC(NC5COC5)CC4)c(C)c3c2C(C)C)cn2ncnc12 [Example 137] |
| 0.26 | 0.49 | 1900 | CCN(C)C1CCN(c2ncc3[nH]c(-c4cc(OC)c5ncnn5c4)c(C(C)C)c3c2C)CC1 [Example 138] |
| 1.1 | 1 | 1030 | COc1cc(-c2[nH]c3cnc(N4CCC(N5CC6(COC6)C5)CC4)c(C)c3c2C(C)C)cn2ncnc12 [Example 139] |

From US11912703B2, “6-azaindole compounds” (BRISTOL-MYERS SQUIBB COMPANY, priority 2017, dated 2024)
